Assay results as given in patent US9346798B2, “Dihydrobenzoxazine and tetrahydroquinoxaline sodium channel inhibitors” (AMGEN INC., priority 2012, dated 2016).

Key:
Format in all cases: cell-based
Nav 1.7 [1] = target: T1, Nav 1.7 (Homo sapiens (Human), UniProt Q15858); assay: Nav 1.7 in vitro assay, IonWorks Quattro (IWQ) population patch-clamp; conditions: HEK 293 cells stably transfected with Nav 1.7; for IC50: 26th pulse to -20 mV; for inhibition at 4.9 µM: HEK293, values marked *, read-out: Nav 1.7 IWQ percent inhibition at 4.9 μM
Experimental: (§1) Nav 1.7 and Nav 1.5 In Vitro Assays
(§2) HEK 293 cells stably transfected with either Nav 1.7 or with Nav 1.5 were recorded in population patch-clamp mode with the IonWorks® Quattro automated electrophysiology system in accordance with the manufacturer's specifications (Molecular Devices, LLC, Sunnyvale, Calif.). Sodium channel currents were measured in response to a train of depolarizations that induced successively greater inactivation.
(§3) Cells were held at −110 mV for three seconds (Nav 1.7) or half a second (Nav 1.5) from a holding voltage of −15 mV, then put through a series of 26 pulses of 150 msec duration to −20 mV at a frequency of 5 Hz. Cells were then left unclamped for a period of 3 to 8 minutes while a single concentration of test compound was added. Cells were then reclamped and put through the same voltage protocol. Current at the end of the 26th pulse to −20 mV was subtracted from the peak current evoked by the 26th pulse to −20 mV to correct for leak current. Percent block was calculated for each concentration in duplicate, and IC50 curves were fitted to percent block as a function of concentration.

Nav 1.7 [2] = target: T1, Nav 1.7; assay: Nav 1.7 in vitro PX assay, PatchXpress whole cell voltage clamp; conditions: HEK 293 cells stably transfected with human Nav1.7; for IC50: partially inactivated state (20 to 50% inactivation)
Experimental: Nav 1.7 In Vitro PX Assay
HEK 293 cells stably transfected with human Nav1.7 were recorded in whole cell voltage clamp mode with the PatchXpress automated electrophysiology system (Molecular Devices, LLC, Sunnyvale, Calif.). Compound effects were measured on a partially inactivated state of the sodium channel. Cells were clamped to a holding potential yielding 20 to 50% inactivation. To elicit sodium current, channels were activated by pulsing to −10 mV for 20 msec. This voltage protocol was repeated at a rate of 0.1 Hz throughout the experiment. A single concentration of test compound was applied to cells for a duration of 3 minutes. Peak sodium current was measured at the end of the compound addition period to determine percent inhibition. Three to five cells were tested per concentration, and IC50 curves were fitted to percent inhibition as a function of concentration.

Nav 1.5 = Nav 1.5 (Homo sapiens (Human), UniProt Q14524); assay: Nav 1.5 in vitro assay, IonWorks Quattro (IWQ) population patch-clamp; conditions: HEK 293 cells stably transfected with Nav 1.5; 26th pulse to -20 mV
Experimental: as §1, §2, §3

Nav 1.5, sequence (Q14524 whole entry): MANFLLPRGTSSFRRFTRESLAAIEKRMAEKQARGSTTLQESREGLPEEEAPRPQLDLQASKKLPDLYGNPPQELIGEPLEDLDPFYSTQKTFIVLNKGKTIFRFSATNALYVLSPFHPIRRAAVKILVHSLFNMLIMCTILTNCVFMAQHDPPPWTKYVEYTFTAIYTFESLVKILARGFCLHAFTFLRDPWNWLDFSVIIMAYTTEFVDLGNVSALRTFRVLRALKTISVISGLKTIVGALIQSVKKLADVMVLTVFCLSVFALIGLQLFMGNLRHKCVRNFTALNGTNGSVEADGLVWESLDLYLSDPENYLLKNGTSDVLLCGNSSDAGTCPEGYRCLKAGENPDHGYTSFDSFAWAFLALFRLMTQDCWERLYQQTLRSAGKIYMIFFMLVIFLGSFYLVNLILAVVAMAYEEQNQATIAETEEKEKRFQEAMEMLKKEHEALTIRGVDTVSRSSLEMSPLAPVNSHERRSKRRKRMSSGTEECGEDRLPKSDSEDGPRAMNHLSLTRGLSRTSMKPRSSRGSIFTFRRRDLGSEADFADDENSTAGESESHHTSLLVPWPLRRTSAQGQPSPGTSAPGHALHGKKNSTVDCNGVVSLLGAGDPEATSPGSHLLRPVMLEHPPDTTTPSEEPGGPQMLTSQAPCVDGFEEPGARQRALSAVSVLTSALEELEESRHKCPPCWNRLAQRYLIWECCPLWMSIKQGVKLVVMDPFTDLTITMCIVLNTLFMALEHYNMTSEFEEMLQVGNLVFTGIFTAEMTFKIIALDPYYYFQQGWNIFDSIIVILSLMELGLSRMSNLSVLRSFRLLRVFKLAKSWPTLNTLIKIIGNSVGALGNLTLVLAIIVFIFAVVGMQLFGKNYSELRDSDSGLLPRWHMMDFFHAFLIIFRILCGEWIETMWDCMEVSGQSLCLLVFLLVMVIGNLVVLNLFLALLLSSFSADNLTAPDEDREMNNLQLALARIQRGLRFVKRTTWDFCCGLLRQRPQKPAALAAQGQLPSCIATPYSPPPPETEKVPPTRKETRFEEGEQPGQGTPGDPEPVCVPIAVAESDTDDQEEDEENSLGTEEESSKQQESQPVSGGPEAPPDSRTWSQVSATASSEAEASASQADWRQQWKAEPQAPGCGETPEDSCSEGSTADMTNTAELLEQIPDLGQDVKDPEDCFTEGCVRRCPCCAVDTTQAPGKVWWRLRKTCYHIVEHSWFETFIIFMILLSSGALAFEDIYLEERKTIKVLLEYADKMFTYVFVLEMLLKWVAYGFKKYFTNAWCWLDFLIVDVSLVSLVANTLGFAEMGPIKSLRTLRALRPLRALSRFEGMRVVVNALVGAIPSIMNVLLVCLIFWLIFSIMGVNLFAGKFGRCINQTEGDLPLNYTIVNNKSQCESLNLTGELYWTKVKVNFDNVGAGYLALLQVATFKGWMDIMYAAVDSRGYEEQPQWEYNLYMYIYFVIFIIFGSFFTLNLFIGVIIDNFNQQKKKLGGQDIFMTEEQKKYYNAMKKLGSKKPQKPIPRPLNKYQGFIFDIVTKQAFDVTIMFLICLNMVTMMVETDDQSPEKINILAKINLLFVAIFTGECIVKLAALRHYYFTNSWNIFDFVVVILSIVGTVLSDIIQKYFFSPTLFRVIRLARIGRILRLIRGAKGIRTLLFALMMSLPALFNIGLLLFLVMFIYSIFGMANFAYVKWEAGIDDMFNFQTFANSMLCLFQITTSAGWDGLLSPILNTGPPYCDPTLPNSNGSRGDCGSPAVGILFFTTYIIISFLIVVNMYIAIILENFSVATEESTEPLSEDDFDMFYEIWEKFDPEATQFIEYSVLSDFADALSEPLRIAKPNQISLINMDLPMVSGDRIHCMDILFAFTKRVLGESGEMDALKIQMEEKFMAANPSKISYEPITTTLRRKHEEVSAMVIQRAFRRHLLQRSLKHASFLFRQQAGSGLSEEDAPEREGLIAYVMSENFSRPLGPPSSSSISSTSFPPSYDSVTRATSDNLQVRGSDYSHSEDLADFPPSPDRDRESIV
T1 sequence (Q15858 whole entry): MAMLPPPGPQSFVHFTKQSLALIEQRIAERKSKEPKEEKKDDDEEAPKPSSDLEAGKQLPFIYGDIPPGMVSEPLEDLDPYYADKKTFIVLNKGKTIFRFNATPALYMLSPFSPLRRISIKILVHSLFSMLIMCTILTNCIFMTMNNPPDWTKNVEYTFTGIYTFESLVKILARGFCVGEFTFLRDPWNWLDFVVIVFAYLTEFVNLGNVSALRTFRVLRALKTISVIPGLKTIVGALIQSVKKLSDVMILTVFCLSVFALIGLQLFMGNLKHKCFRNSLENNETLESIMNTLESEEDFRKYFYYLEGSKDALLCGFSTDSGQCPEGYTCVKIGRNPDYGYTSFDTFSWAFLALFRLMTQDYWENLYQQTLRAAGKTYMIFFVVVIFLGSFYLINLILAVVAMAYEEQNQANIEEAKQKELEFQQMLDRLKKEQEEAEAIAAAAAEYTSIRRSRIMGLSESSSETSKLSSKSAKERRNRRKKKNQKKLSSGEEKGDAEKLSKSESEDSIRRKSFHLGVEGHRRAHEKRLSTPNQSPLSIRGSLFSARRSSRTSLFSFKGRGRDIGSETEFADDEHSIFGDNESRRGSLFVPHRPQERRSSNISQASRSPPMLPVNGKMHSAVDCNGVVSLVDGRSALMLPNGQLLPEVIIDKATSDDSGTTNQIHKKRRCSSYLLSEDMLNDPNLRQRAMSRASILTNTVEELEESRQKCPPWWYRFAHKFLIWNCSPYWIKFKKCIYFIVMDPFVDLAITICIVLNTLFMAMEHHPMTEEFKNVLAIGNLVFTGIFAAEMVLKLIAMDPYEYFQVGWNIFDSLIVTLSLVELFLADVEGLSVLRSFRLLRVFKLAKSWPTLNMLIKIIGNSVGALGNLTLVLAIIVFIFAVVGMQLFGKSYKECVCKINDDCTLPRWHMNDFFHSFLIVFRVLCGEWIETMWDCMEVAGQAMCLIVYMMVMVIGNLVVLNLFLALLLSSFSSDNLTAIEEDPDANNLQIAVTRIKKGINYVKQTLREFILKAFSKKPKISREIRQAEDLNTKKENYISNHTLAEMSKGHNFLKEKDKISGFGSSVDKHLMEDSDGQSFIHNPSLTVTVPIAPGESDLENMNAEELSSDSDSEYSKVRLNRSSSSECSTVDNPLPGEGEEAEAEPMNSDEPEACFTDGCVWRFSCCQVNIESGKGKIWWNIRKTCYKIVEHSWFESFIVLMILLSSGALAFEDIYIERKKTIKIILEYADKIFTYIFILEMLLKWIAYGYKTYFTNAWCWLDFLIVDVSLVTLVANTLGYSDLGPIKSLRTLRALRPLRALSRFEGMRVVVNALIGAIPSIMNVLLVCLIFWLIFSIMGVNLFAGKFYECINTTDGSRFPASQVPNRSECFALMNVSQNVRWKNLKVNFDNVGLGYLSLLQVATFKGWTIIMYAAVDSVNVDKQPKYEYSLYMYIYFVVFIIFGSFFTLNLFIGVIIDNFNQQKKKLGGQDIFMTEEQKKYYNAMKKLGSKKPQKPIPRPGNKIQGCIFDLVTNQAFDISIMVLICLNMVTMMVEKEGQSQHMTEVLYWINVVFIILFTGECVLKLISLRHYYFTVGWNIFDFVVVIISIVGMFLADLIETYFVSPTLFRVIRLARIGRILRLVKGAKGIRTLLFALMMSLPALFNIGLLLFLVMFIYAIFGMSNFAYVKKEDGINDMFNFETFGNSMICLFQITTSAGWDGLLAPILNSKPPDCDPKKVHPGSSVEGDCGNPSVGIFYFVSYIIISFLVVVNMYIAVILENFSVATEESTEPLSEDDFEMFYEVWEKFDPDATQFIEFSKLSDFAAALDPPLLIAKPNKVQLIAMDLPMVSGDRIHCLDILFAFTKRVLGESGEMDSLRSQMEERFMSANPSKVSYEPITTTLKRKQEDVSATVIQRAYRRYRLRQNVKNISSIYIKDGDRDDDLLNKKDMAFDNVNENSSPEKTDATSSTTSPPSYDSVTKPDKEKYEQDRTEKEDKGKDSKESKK

IC50 (Nav 1.7 [1]) [µM]	IC50 (Nav 1.7 [2]) [µM]	inhibition at 4.9 µM (Nav 1.7 [1]) [%]	Compound	IC50 (Nav 1.5) [µM]	inhibition at 4.9 µM (Nav 1.7 [2]; HEK293, values marked *, 4.9 μM, read-out: Nav 1.7 PX percent inhibition at 4.9 μM) [%]
0.235	11.8	–	COc1ncc(C(F)(F)F)cc1N1CCOc2cc(S(=O)(=O)Nc3nccs3)ccc21 [Example 145, 4-(2-Methoxy-5-(trifluoromethyl)pyridin-3-yl)-N-(thiazol-2-yl)-3,4-dihydro-2H-benzo[b][1,4]oxazine-7-sulfonamide]	7.38	–
1.63	2.78	–	N#Cc1cc(C(F)(F)F)ccc1N1CCOc2cc(S(=O)(=O)Nc3cscn3)ccc21 [Example 152, 4-(2-cyano-4-(trifluoromethyl)phenyl)-N-(thiazol-4-yl)-3,4-dihydro-2H-benzo[b][1,4]oxazine-7-sulfonamide]	9.42	–
0.117	0.315	–	CN1CCN(c2cc(C(F)(F)F)ccc2N2CCOc3cc(S(=O)(=O)Nc4nccs4)ccc32)CC1 [Example 50, 4-(2-(4-Methylpiperazin-1-Yl)-4-(Trifluoromethyl)Phenyl)-N-(Thiazol-2-Yl)-3,4-Dihydro-2H-Benzo[B][1,4]Oxazine-7-Sulfonamide 2,2,2-Trifluoroacetate]	0.957	–
0.326	3.04	–	O=S(=O)(Nc1nccs1)c1ccc2c(c1)OCCN2c1ccc(F)c(F)c1 [Example 84, 4-(3,4-Difluorophenyl)-N-(Thiazol-2-Yl)-3,4-Dihydro-2H-Benzo[B][1,4]Oxazine-7-Sulfonamide 2,2,2-Trifluoroacetate]	3.81	–
0.0123	0.146	–	O=S(=O)(Nc1ncns1)c1ccc2c(c1)OCCN2c1ccc(C(F)(F)F)cc1C1=CCOCC1 [Example 25, 4-(2-(3,6-Dihydro-2H-Pyran-4-Yl)-4-(Trifluoromethyl)Phenyl)-N-(1,2,4-Thiadiazol-5-Yl)-3,4-Dihydro-2H-Benzo[B][1,4]Oxazine-7-Sulfonamide]	0.214	–
–	–	20	CCN(CC)C(=O)CN1CCOc2cc(S(=O)(=O)Nc3nccs3)ccc21 [Example 228, N,N-Diethyl-2-(7-(N-(Thiazol-2-Yl)Sulfamoyl)-2H-Benzo[B][1,4]Oxazin-4(3 H)-Yl)Acetamide]	> 10	–
–	–	41.1	O=S(=O)(Nc1cncs1)c1ccc2c(c1)OCCN2c1ccc(C(F)(F)F)cc1C1=CCNCC1 [Example 85, 4-(2-(1,2,3,6-Tetrahydropyridin-4-Yl)-4-(Trifluoromethyl)Phenyl)-N-(Thiazol-5-Yl)-3,4-Dihydro-2H-Benzo[B][1,4]Oxazine-7-Sulfonamide 2,2,2-Trifluoroacetate]	> 10	–
3.56	–	–	Cc1ccc(N2CCOc3cc(S(=O)(=O)Nc4nccs4)ccc32)c(C)n1 [Example 132, 4-(2,6-Dimethylpyridin-3-yl)-N-(thiazol-2-yl)-3,4-dihydro-2H-benzo[b][1,4]oxazine-7-sulfonamide]	> 10	–
–	–	24.5	Cc1cnc(NS(=O)(=O)c2ccc3c(c2)OCCN3c2ccc(C(F)(F)F)cc2Cl)s1 [Example 12, 4-(2-Chloro-4-(Trifluoromethyl)Phenyl)-N-(5-Methylthiazol-2-Yl)-3,4-Dihydro-2H-Benzo[B][1,4]Oxazine-7-Sulfonamide]	> 10	–
6.11	–	–	Cn1ccc(NS(=O)(=O)c2ccc3c(c2)OCCN3c2ccc(C(F)(F)F)cc2Cl)n1 [Example 15, 4-(2-Chloro-4-(Trifluoromethyl)Phenyl)-N-(1-Methyl-1H-Pyrazol-3-Yl)-3,4-Dihydro-2H-Benzo[B][1,4]Oxazine-7-Sulfonamide]	> 10	–
9.31	–	–	CN(C)CCn1ccc(NS(=O)(=O)c2ccc3c(c2)OCCN3c2ccc(C(F)(F)F)cc2Cl)n1 [Example 14, 4-(2-Chloro-4-(Trifluoromethyl)Phenyl)-N-(1-(2-(Dimethylamino)Ethyl)-1H-Pyrazol-3-Yl)-3,4-Dihydro-2H-Benzo[B][1,4]Oxazine-7-Sulfonamide 2,2,2-Trifluoroacetate]	8.25	–
7.58	–	–	Cc1ccc2cnccc2c1N1CCOc2cc(S(=O)(=O)Nc3nccs3)ccc21 [Example 73, 4-(6-Methylisoquinolin-5-Yl)-N-(Thiazol-2-Yl)-3,4-Dihydro-2H-Benzo[B][1,4]Oxazine-7-Sulfonamide 2,2,2-Trifluoroacetate]	> 10	–
–	–	–	N#Cc1ccc(F)cc1N1CCOc2cc(S(=O)(=O)Nc3nccs3)ccc21 [Example 188, 4-(2-Cyano-5-Fluorophenyl)-N-(Thiazol-2-Yl)-3,4-Dihydro-2H-Benzo[B][1,4]Oxazine-7-Sulfonamide]	3.62	–
–	–	–	N#Cc1ccc(F)c(N2CCOc3cc(S(=O)(=O)Nc4nccs4)ccc32)c1 [Example 164, 4-(5-Cyano-2-Fluorophenyl)-N-(Thiazol-2-Yl)-3,4-Dihydro-2H-Benzo[B][1,4]Oxazine-7-Sulfonamide 2,2,2-Trifluoroacetate]	> 10	–
–	–	–	O=S(=O)(Nc1nccs1)c1ccc2c(c1)OCCN2c1ccc(F)cc1F [Example 176, 4-(2,4-Difluorophenyl)-N-(Thiazol-2-Yl)-3,4-Dihydro-2H-Benzo[B][1,4]Oxazine-7-Sulfonamide 2,2,2-Trifluoroacetate]	> 10	–
–	–	–	O=S(=O)(Nc1nccs1)c1ccc2c(c1)OCCN2c1ccc(-n2ccnc2)cc1 [Example 154, 4-(4-(1H-Imidazol-1-Yl)Phenyl)-N-(Thiazol-2-Yl)-3,4-Dihydro-2H-Benzo[B][1,4]Oxazine-7-Sulfonamide 2,2,2-Trifluoroacetate]	> 10	–
2.14	–	–	N#Cc1cncc(N2CCOc3cc(S(=O)(=O)Nc4nccs4)ccc32)c1 [Example 117, 4-(5-Cyanopyridin-3-yl)-N-(thiazol-2-yl)-3,4-dihydro-2H-benzo[b][1,4]oxazine-7-sulfonamide]	> 10	–
2.53	–	–	COc1ccc(N2CCOc3cc(S(=O)(=O)Nc4nccs4)ccc32)cc1OC [Example 119, 4-(3,4-Dimethoxyphenyl)-N-(thiazol-2-yl)-3,4-dihydro-2H-benzo[b][1,4]oxazine-7-sulfonamide]	> 10	–
–	–	–	CCOc1cccc(N2CCOc3cc(S(=O)(=O)Nc4nccs4)ccc32)c1 [Example 162, 4-(3-Ethoxyphenyl)-N-(Thiazol-2-Yl)-3,4-Dihydro-2H-Benzo[B][1,4]Oxazine-7-Sulfonamide 2,2,2-Trifluoroacetate]	> 10	–
–	–	26.4	O=C1COc2cc(S(=O)(=O)Nc3nncs3)ccc2N1c1cccc(Cl)c1 [Example 92, 4-(3-Chlorophenyl)-3-Oxo-N-(1,3,4-Thiadiazol-2-Yl)-3,4-Dihydro-2H-Benzo[B][1,4]Oxazine-7-Sulfonamide]	> 10	–
–	–	–	O=C1CCCc2ccc(N3CCOc4cc(S(=O)(=O)Nc5nccs5)ccc43)cc21 [Example 160, 4-(8-Oxo-5,6,7,8-Tetrahydronaphthalen-2-Yl)-N-(Thiazol-2-Yl)-3,4-Dihydro-2H-Benzo[B][1,4]Oxazine-7-Sulfonamide 2,2,2-Trifluoroacetate]	> 10	–

Compound	IC50 (Nav 1.7 [1]) [µM]	IC50 (Nav 1.7 [2]) [µM]	inhibition at 4.9 µM (Nav 1.7 [1]) [%]	IC50 (Nav 1.5) [µM]	inhibition at 4.9 µM (Nav 1.7 [2]; HEK293, values marked *, 4.9 μM, read-out: Nav 1.7 PX percent inhibition at 4.9 μM) [%]
[N-]=[N+]=Nc1ccc(N2CCOc3cc(S(=O)(=O)Nc4nccs4)ccc32)c(C2=CCNCC2)c1 [Example 65, 4-(4-Azido-2-(1,2,3,6-Tetrahydropyridin-4-Yl)Phenyl)-N-(Thiazol-2-Yl)-3,4-Dihydro-2H-Benzo[B][1,4]Oxazine-7-Sulfonamide Bis(2,2,2-Trifluoroacetate)]	0.024	0.0244	–	5.28	–
Cc1cc(N2CCOc3cc(S(=O)(=O)Nc4nccs4)ccc32)ccc1C#N [Example 116, 4-(4-Cyano-3-methylphenyl)-N-(thiazol-2-yl)-3,4-dihydro-2H-benzo[b][1,4]oxazine-7-sulfonamide]	0.841	4.95	–	7.36	–
CC(=O)N1CCN(c2ccc(C(F)(F)F)cc2Cl)c2ccc(S(=O)(=O)Nc3ncns3)cc21 [Example 20, 4-Acetyl-1-(2-Chloro-4-(Trifluoromethyl)Phenyl)-N-(1,2,4-Thiadiazol-5-Yl)-1,2,3,4-Tetrahydroquinoxaline-6-Sulfonamide]	7.6	–	–	–	33.2
O=S(=O)(Nc1nccs1)c1ccc2c(c1)OCCN2c1ccc(Cl)cc1C1=CCNCC1 [Example 52, 4-(4-Chloro-2-(1,2,3,6-Tetrahydropyridin-4-Yl)Phenyl)-N-(Thiazol-2-Yl)-3,4-Dihydro-2H-Benzo[B][1,4]Oxazine-7-Sulfonamide 2,2,2-Trifluoroacetate]	0.0045	0.0355	–	–	–
